Laboratory results: patent publication US8802597B2, “Herbicidal pyrimidines” (E I du Pont de Nemours and Company, priority 2003, dated 2014)

What was measured:
Assay in all cases: Test G pre/postemergence
Assay type in all cases: in vivo
[1] = test system: Canada horseweed (Conyza canadensis)
Procedure, shortened: (§1)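 Seeds or nutlets were planted and treated preemergence with compound formulated in a non-phytotoxic solvent mixture containing surfactant; plants 2 to 18 cm tall (1- to 4-leaf stage) received postemergence sprays of the same formulation. After 12 to 21 days in a greenhouse, injury was rated visually against untreated controls on a 0–100 scale (100 = complete control).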

[2] = test system: dallisgrass (Paspalum dilatatum)
Procedure, shortened: as §1

[3] = test system: common groundsel (Senecio vulgaris)
Procedure, shortened: as §1

[4] = test system: tropical spiderwort (Commelina benghalensis)
Procedure, shortened: as §1

kochia (Kochia scoparia) = test system: kochia (Kochia scoparia)
Procedure, shortened: as §1

[5] = test system: common purslane (Portulaca oleracea)
Procedure, shortened: as §1

[6] = test system: goosegrass (Eleusine indica)
Procedure, shortened: as §1

[7] = test system: spanishneedles (Bidens bipinnata)
Procedure, shortened: as §1

[8] = test system: itchgrass (Rottboellia cochinchinensis)
Procedure, shortened: as §1

[9] = test system: pitted morningglory (Ipomoea lacunosa)
Procedure, shortened: as §1

[10] = test system: johnsongrass (Sorghum halepense)
Procedure, shortened: as §1

[11] = Postemergence, 250 g ai/ha, scale 0 to 100
[12] = Postemergence, 500 g ai/ha, scale 0 to 100
[13] = Postemergence, 125 g ai/ha, scale 0 to 100
[14] = Postemergence, 375 g ai/ha, scale 0 to 100
[15] = Preemergence, 62 g ai/ha, scale 0-100
[16] = Preemergence, 125 g ai/ha, scale 0-100
[17] = Preemergence, 250 g ai/ha, scale 0-100
[18] = Preemergence, 500 g ai/ha, scale 0 to 100
[19] = Preemergence, 375 g ai/ha, scale 0 to 100
[20] = Postemergence, 62 g ai/ha, scale 0 to 100
[21] = Preemergence, 500 g ai/ha, scale 0-100
[22] = Postemergence, 8 g ai/ha, scale 0 to 100
[23] = Postemergence, 16 g ai/ha, scale 0 to 100
[24] = Postemergence, 31 g ai/ha, scale 0 to 100
[25] = Preemergence, 8 g ai/ha, scale 0-100
[26] = Preemergence, 16 g ai/ha, scale 0-100
[27] = Preemergence, 31 g ai/ha, scale 0-100

Structure (SMILES): CCOC(=O)c1nc(C2CC2)nc(N)c1Br [Compound 1, ethyl 6-amino-5-bromo-2-cyclopropyl-4-pyrimidinecarboxylate]
- Plant response rating, Horseweed [1, 11]: 100
- Plant response rating, Horseweed [1, 12]: 100
- Plant response rating, Horseweed [1, 13]: 70
- Plant response rating, Horseweed [1, 14]: 100
- Plant response rating, Horseweed [1, 15]: 95
- Plant response rating, Horseweed [1, 16]: 95
- Plant response rating, Horseweed [1, 17]: 100
- Plant response rating, Horseweed [1, 18]: 100
- Plant response rating, Horseweed [1, 19]: 100
- Plant response rating, Dallisgrass [2, 11]: 30
- Plant response rating, Dallisgrass [2, 12]: 30
- Plant response rating, Dallisgrass [2, 20]: 10
- Plant response rating, Dallisgrass [2, 13]: 20
- Plant response rating, Dallisgrass [2, 14]: 30
- Plant response rating, Dallisgrass [2, 15]: 0
- Plant response rating, Dallisgrass [2, 16]: 10
- Plant response rating, Dallisgrass [2, 17]: 50
- Plant response rating, Dallisgrass [2, 18]: 95
- Plant response rating, Dallisgrass [2, 19]: 95
- Plant response rating, Groundsel [3, 11]: 95
- Plant response rating, Groundsel [3, 12]: 100
- Plant response rating, Groundsel [3, 20]: 60
- Plant response rating, Groundsel [3, 13]: 95
- Plant response rating, Groundsel [3, 14]: 100
- Plant response rating, Groundsel [3, 15]: 60
- Plant response rating, Groundsel [3, 16]: 100
- Plant response rating, Groundsel [3, 17]: 100
- Plant response rating, Groundsel [3, 18]: 100
- Plant response rating, Groundsel [3, 19]: 100
- Plant response rating, Spiderwort [4, 11]: 95
- Plant response rating, Spiderwort [4, 12]: 95
- Plant response rating, Spiderwort [4, 20]: 95
- Plant response rating, Spiderwort [4, 13]: 95
- Plant response rating, Spiderwort [4, 14]: 95
- Plant response rating, Spiderwort [4, 15]: 70
- Plant response rating, Spiderwort [4, 16]: 100
- Plant response rating, Spiderwort [4, 17]: 100
- Plant response rating, Spiderwort [4, 21]: 100
- Plant response rating, Spiderwort [4, 18]: 100
- Plant response rating, Kochia (kochia (Kochia scoparia); [14]): 95
- Plant response rating, Kochia (kochia (Kochia scoparia); [15]): 100
- Plant response rating, Kochia (kochia (Kochia scoparia); [16]): 100
- Plant response rating, Kochia (kochia (Kochia scoparia); [17]): 100
- Plant response rating, Kochia (kochia (Kochia scoparia); [21]): 100
- Plant response rating, Kochia (kochia (Kochia scoparia); [18]): 100
- Plant response rating, Purslane [5, 11]: 100
- Plant response rating, Purslane [5, 12]: 100
- Plant response rating, Purslane [5, 20]: 80
- Plant response rating, Purslane [5, 13]: 100
- Plant response rating, Purslane [5, 14]: 100
- Plant response rating, Purslane [5, 15]: 10
- Plant response rating, Purslane [5, 16]: 60
- Plant response rating, Purslane [5, 17]: 95
- Plant response rating, Purslane [5, 21]: 100
- Plant response rating, Purslane [5, 18]: 100
- Plant response rating, Goosegrass [6, 11]: 60
- Plant response rating, Goosegrass [6, 12]: 60
- Plant response rating, Goosegrass [6, 20]: 20
- Plant response rating, Goosegrass [6, 13]: 60
- Plant response rating, Goosegrass [6, 14]: 60
- Plant response rating, Goosegrass [6, 15]: 0
- Plant response rating, Goosegrass [6, 17]: 50
- Plant response rating, Goosegrass [6, 18]: 50
- Plant response rating, Goosegrass [6, 19]: 50
- Plant response rating, Spanishneedles [7, 11]: 95
- Plant response rating, Spanishneedles [7, 12]: 95
- Plant response rating, Spanishneedles [7, 20]: 80
- Plant response rating, Spanishneedles [7, 13]: 95
- Plant response rating, Spanishneedles [7, 14]: 95
- Plant response rating, Spanishneedles [7, 15]: 100
- Plant response rating, Spanishneedles [7, 16]: 100
- Plant response rating, Spanishneedles [7, 17]: 100
- Plant response rating, Spanishneedles [7, 21]: 100
- Plant response rating, Spanishneedles [7, 18]: 100
- Plant response rating, Itchgrass [8, 11]: 60
- Plant response rating, Itchgrass [8, 12]: 70
- Plant response rating, Itchgrass [8, 20]: 20
- Plant response rating, Itchgrass [8, 13]: 40
- Plant response rating, Itchgrass [8, 14]: 60
- Plant response rating, Itchgrass [8, 15]: 10
- Plant response rating, Itchgrass [8, 16]: 30
- Plant response rating, Itchgrass [8, 17]: 80
- Plant response rating, Itchgrass [8, 21]: 85
- Plant response rating, Itchgrass [8, 18]: 90
- Plant response rating, Morningglory [9, 11]: 100
- Plant response rating, Morningglory [9, 12]: 100
- Plant response rating, Morningglory [9, 20]: 100
- Plant response rating, Morningglory [9, 13]: 100
- Plant response rating, Morningglory [9, 14]: 100
- Plant response rating, Morningglory [9, 15]: 95
- Plant response rating, Morningglory [9, 16]: 100
- Plant response rating, Morningglory [9, 17]: 100
- Plant response rating, Morningglory [9, 21]: 100
- Plant response rating, Morningglory [9, 18]: 100
- Plant response rating, Johnsongrass [10, 11]: 95
- Plant response rating, Johnsongrass [10, 12]: 95
- Plant response rating, Johnsongrass [10, 20]: 70
- Plant response rating, Johnsongrass [10, 13]: 70
- Plant response rating, Johnsongrass [10, 14]: 95
- Plant response rating, Johnsongrass [10, 15]: 20
- Plant response rating, Johnsongrass [10, 16]: 40
- Plant response rating, Johnsongrass [10, 17]: 60
- Plant response rating, Johnsongrass [10, 21]: 75
- Plant response rating, Johnsongrass [10, 18]: 75

Structure (SMILES): CCOC(=O)c1nc(-c2ccc(Cl)cc2)nc(N)c1Cl [Compound 64, ethyl 6-amino-5-chloro-2-(4-chlorophenyl)-4-pyrimidinecarboxylate]
- Plant response rating, Horseweed [1, 22]: 60
- Plant response rating, Horseweed [1, 23]: 60
- Plant response rating, Horseweed [1, 24]: 60
- Plant response rating, Horseweed [1, 20]: 60
- Plant response rating, Horseweed [1, 25]: 0
- Plant response rating, Horseweed [1, 26]: 75
- Plant response rating, Horseweed [1, 27]: 95
- Plant response rating, Horseweed [1, 15]: 95
- Plant response rating, Dallisgrass [2, 22]: 0
- Plant response rating, Dallisgrass [2, 23]: 0
- Plant response rating, Dallisgrass [2, 24]: 0
- Plant response rating, Dallisgrass [2, 20]: 20
- Plant response rating, Dallisgrass [2, 25]: 0
- Plant response rating, Dallisgrass [2, 26]: 0
- Plant response rating, Dallisgrass [2, 27]: 0
- Plant response rating, Dallisgrass [2, 15]: 0
- Plant response rating, Groundsel [3, 22]: 0
- Plant response rating, Groundsel [3, 23]: 0
- Plant response rating, Groundsel [3, 24]: 0
- Plant response rating, Groundsel [3, 20]: 0
- Plant response rating, Groundsel [3, 25]: 0
- Plant response rating, Groundsel [3, 26]: 0
- Plant response rating, Groundsel [3, 27]: 10
- Plant response rating, Groundsel [3, 15]: 40
- Plant response rating, Spiderwort [4, 22]: 65
- Plant response rating, Spiderwort [4, 23]: 80
- Plant response rating, Spiderwort [4, 24]: 80
- Plant response rating, Spiderwort [4, 20]: 90
- Plant response rating, Spiderwort [4, 25]: 0
- Plant response rating, Spiderwort [4, 26]: 50
- Plant response rating, Spiderwort [4, 27]: 75
- Plant response rating, Spiderwort [4, 15]: 90
- Plant response rating, Kochia (kochia (Kochia scoparia); [22]): 65
- Plant response rating, Kochia (kochia (Kochia scoparia); [23]): 75
- Plant response rating, Kochia (kochia (Kochia scoparia); [24]): 85
- Plant response rating, Kochia (kochia (Kochia scoparia); [20]): 90
- Plant response rating, Kochia (kochia (Kochia scoparia); [25]): 0
- Plant response rating, Kochia (kochia (Kochia scoparia); [26]): 0
- Plant response rating, Kochia (kochia (Kochia scoparia); [27]): 10
- Plant response rating, Kochia (kochia (Kochia scoparia); [15]): 15
- Plant response rating, Purslane [5, 22]: 0
- Plant response rating, Purslane [5, 23]: 0
- Plant response rating, Purslane [5, 24]: 0
- Plant response rating, Purslane [5, 20]: 60
- Plant response rating, Purslane [5, 25]: 0
- Plant response rating, Purslane [5, 26]: 0
- Plant response rating, Purslane [5, 27]: 0
- Plant response rating, Purslane [5, 15]: 35
- Plant response rating, Goosegrass [6, 22]: 0
- Plant response rating, Goosegrass [6, 23]: 0
- Plant response rating, Goosegrass [6, 24]: 0
- Plant response rating, Goosegrass [6, 20]: 20
- Plant response rating, Goosegrass [6, 25]: 0
- Plant response rating, Goosegrass [6, 26]: 0
- Plant response rating, Goosegrass [6, 27]: 0
- Plant response rating, Goosegrass [6, 15]: 0
- Plant response rating, Spanishneedles [7, 22]: 65
- Plant response rating, Spanishneedles [7, 23]: 75
- Plant response rating, Spanishneedles [7, 24]: 90
- Plant response rating, Spanishneedles [7, 20]: 90
- Plant response rating, Spanishneedles [7, 25]: 0
- Plant response rating, Spanishneedles [7, 26]: 0
- Plant response rating, Spanishneedles [7, 27]: 0
- Plant response rating, Spanishneedles [7, 15]: 35
- Plant response rating, Itchgrass [8, 22]: 0
- Plant response rating, Itchgrass [8, 23]: 0
- Plant response rating, Itchgrass [8, 24]: 0
- Plant response rating, Itchgrass [8, 20]: 60
- Plant response rating, Itchgrass [8, 25]: 0
- Plant response rating, Itchgrass [8, 26]: 0
- Plant response rating, Itchgrass [8, 27]: 0
- Plant response rating, Itchgrass [8, 15]: 20
- Plant response rating, Morningglory [9, 22]: 0
- Plant response rating, Morningglory [9, 23]: 0
- Plant response rating, Morningglory [9, 24]: 20
- Plant response rating, Morningglory [9, 20]: 65
- Plant response rating, Morningglory [9, 25]: 0
- Plant response rating, Morningglory [9, 26]: 0
- Plant response rating, Morningglory [9, 27]: 0
- Plant response rating, Morningglory [9, 15]: 0
- Plant response rating, Johnsongrass [10, 22]: 0
- Plant response rating, Johnsongrass [10, 23]: 0
- Plant response rating, Johnsongrass [10, 24]: 0
- Plant response rating, Johnsongrass [10, 20]: 0
- Plant response rating, Johnsongrass [10, 25]: 0
- Plant response rating, Johnsongrass [10, 26]: 0
- Plant response rating, Johnsongrass [10, 27]: 0
- Plant response rating, Johnsongrass [10, 15]: 0
